In ChEMBL document CHEMBL4673260, “Pyridine alkaloids with activity in the central nervous system” (Bioorg Med Chem, 2020):

How the values were obtained:
[1] = Antagonist activity at 5HT1 in Wistar rat stomach fundus strip assessed as inhibition of 5-hydroxy-tryptamine evoked contraction preincubated for 20 mins followed by 5-HT addition; format: tissue-based
[2] = Neuroprotective activity in rat neuron assessed as NMDA-induced intracellular calcium level at 1 ug/ml preincubated for 5 mins followed by glutamic acid stimulation and measured for 20 mins (reference value: 235%); format: functional; conditions: time 25 min
[3] = Neuroprotective activity in rat neuron assessed as glutamic acid induced intracellular calcium level at 3 ug/ml preincubated for 5 mins followed by glutamic acid stimulation and measured for 30 mins (reference value: 305%); format: functional; conditions: time 35 min
[4] = Neuroprotective activity in rat neuron assessed as glutamic acid induced intracellular calcium level at 0.5 ug/ml preincubated for 5 mins followed by glutamic acid stimulation and measured for 30 mins (reference value: 305%); format: functional; conditions: time 35 min
[5] = Neuroprotective activity in rat neuron assessed as glutamic acid induced intracellular calcium level at 1 ug/ml preincubated for 5 mins followed by glutamic acid stimulation and measured for 30 mins (reference value: 305%); format: functional; conditions: time 35 min
[6] = In vivo agonist activity at nAChR in rat assessed as acetylcholine level in cortex at 3.6 micromol/kg, sc by microdialysis relative to control; format: functional; conditions: dose 3.6 µmol/kg
[7] = target: Muscarinic acetylcholine receptor M1 (Homo sapiens, UniProt P11229); experiment: Displacement of [3H]nicotine from muscarinic M1 receptor (unknown origin)
Sequence of Muscarinic acetylcholine receptor M1 (P11229 whole entry): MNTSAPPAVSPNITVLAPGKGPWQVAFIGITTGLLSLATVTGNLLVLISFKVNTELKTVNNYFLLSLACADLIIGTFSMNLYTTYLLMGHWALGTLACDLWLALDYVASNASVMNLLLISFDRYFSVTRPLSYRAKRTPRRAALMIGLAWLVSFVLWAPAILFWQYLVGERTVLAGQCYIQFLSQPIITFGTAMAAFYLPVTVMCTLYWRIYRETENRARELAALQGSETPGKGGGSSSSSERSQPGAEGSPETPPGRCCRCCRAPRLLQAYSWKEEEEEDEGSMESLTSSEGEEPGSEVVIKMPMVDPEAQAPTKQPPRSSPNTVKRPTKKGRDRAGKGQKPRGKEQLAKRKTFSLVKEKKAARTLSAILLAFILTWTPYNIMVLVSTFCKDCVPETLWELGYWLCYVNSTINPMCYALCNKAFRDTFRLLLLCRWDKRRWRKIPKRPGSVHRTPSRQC

[8] = target: T1, Neuronal acetylcholine receptor; alpha4/beta2 (Rattus norvegicus, UniProt P09483+P12390)
T1 sequence (P09483 whole entry): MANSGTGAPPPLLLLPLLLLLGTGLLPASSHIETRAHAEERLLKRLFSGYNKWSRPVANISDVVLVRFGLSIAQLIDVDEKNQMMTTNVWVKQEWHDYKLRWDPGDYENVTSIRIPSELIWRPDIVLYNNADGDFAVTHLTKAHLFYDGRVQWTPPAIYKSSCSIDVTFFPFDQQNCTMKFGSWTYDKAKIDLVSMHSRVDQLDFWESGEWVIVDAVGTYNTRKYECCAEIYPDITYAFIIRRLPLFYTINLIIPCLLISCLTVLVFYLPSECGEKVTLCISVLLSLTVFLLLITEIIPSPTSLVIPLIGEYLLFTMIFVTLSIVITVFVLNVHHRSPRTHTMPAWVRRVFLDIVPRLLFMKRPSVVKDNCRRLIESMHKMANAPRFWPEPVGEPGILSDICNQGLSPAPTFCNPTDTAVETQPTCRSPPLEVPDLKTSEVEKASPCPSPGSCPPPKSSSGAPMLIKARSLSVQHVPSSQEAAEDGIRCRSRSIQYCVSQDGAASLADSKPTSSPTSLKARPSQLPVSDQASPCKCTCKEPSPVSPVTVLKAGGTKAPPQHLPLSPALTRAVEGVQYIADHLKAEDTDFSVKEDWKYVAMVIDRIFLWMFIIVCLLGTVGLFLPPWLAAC
T1 sequence (P12390 whole entry): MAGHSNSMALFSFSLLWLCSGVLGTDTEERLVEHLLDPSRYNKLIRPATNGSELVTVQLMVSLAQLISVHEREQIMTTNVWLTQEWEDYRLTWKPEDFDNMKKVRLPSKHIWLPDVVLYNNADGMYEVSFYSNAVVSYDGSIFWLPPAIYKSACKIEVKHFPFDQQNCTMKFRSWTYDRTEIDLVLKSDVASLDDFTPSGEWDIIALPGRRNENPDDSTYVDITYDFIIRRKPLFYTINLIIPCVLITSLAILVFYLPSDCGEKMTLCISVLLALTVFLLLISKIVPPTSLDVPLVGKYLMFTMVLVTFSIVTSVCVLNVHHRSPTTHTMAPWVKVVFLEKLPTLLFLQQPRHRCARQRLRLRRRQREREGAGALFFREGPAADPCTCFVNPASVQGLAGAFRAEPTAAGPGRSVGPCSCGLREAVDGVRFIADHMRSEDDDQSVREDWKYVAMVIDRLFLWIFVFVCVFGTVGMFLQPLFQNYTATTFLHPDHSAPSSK
Description: Agonist activity at alpha4beta2 nAChR in rat thalamic synaptosomes assessed as increase in 86Rb efflux

Rattus norvegicus [9] = experiment: Memory enhancing effect in Sprague-Dawley rat model of ibotenic-acid-induced impairment of forebrain cholinergic projection system assessed as improvement in reference memory at 0.36 to 1.4 micromol/kg, po by radial arm maze test relative to control; format: functional; conditions: dose 0.36-1.4 µmol/kg
[10] = Displacement of [3H]nicotine from angiotensin II receptor (unknown origin); design: species or system Homo sapiens
[11] = target: 5-hydroxytryptamine receptor 1A (Homo sapiens, UniProt P08908); experiment: Displacement of […] from 5-hydroxytryptamine receptor 1A (unknown origin)
Sequence of 5-hydroxytryptamine receptor 1A (P08908 whole entry): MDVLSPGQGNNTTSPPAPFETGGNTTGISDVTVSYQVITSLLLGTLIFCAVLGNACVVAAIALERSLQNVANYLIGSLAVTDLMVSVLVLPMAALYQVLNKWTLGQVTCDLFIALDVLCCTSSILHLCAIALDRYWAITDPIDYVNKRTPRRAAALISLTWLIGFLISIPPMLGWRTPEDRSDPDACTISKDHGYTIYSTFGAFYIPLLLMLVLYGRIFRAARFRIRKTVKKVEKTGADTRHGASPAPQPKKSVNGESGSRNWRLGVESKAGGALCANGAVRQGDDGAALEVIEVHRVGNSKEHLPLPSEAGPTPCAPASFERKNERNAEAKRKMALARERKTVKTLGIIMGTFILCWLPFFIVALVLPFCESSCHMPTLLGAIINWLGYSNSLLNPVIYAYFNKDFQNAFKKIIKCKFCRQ

Histamine H3 receptor = Histamine H3 receptor (Homo sapiens, UniProt Q9Y5N1); experiment: Displacement of [3H]nicotine from Histamine H3 receptor (unknown origin)
Sequence of Histamine H3 receptor (Q9Y5N1 whole entry): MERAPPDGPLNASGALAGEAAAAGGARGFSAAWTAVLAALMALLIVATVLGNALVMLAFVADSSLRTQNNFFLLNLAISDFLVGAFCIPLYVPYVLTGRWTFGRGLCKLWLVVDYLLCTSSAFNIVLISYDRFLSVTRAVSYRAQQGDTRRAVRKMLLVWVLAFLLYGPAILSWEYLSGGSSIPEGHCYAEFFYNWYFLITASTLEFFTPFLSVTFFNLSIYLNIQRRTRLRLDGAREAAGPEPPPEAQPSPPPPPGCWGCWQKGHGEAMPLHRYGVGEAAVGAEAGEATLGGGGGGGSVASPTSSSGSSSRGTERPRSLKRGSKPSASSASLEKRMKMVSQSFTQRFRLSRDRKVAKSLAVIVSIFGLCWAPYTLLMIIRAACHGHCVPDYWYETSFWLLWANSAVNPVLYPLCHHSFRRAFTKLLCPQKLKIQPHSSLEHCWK

[12] = target: Glutamate [NMDA] receptor; experiment: Displacement of [3H]nicotine from NMDA receptor (unknown origin); format: protein-complex assay, Homo sapiens
Thromboxane A2 receptor = Thromboxane A2 receptor (Homo sapiens, UniProt P21731); experiment: Displacement of [3H]nicotine from Thromboxane A2 (unknown origin)
Sequence of Thromboxane A2 receptor (P21731 whole entry): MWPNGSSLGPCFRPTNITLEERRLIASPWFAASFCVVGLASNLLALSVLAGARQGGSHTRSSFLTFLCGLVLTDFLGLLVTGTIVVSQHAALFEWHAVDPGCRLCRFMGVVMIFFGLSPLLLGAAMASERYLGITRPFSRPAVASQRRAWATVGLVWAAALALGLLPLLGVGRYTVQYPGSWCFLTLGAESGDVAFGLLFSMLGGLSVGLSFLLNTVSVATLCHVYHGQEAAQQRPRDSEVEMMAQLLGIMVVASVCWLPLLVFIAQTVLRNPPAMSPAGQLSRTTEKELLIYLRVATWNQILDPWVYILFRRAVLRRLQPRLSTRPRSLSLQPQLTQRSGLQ

[13] = target: Neuropeptide Y receptor type 2 (Homo sapiens, UniProt P49146); experiment: Displacement of [3H]nicotine from NPY2R (unknown origin)
Sequence of Neuropeptide Y receptor type 2 (P49146 whole entry): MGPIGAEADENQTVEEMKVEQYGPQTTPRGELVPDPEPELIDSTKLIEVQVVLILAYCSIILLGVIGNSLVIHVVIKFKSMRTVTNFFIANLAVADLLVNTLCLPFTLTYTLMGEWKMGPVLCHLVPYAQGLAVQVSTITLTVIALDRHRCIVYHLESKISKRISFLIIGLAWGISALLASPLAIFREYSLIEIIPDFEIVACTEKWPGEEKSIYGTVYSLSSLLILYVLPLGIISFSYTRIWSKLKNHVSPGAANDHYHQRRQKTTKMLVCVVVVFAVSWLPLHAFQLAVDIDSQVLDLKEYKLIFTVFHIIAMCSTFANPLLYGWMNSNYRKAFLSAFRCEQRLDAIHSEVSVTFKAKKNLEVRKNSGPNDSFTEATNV

Endothelin-1 receptor = Endothelin-1 receptor (Homo sapiens, UniProt P25101); experiment: Displacement of [3H]nicotine from Endothelin receptor type A (unknown origin)
[14] = Acute toxicity in po dosed dog administered as repeated dose for 28 days; format: organism-based, Canis lupus familiaris; conditions: in vivo, time 28 day
[15] = Acute toxicity in po dosed mouse administered as repeated dose for 28 days; format: organism-based; conditions: in vivo, time 28 day
[16] = target: T2, Neuronal acetylcholine receptor; alpha4/beta2 (Rattus norvegicus) (UniProt P09483+P12390); experiment: Agonist activity at alpha4beta2 nAChR in rat thalamic synaptosomes assessed as 86Rb efflux relative to tetramethylammonium; format: subcellular; conditions: Thalamus, filed as agonist
Rattus norvegicus [17] = species: Rattus norvegicus; experiment: Agonist activity at nAChR in rat striatal synaptosomes assessed as [3H]dopamine release relative to tetramethylammonium; format: subcellular; conditions: Striatum, filed as agonist
[18] = target: T1, Neuronal acetylcholine receptor; alpha4/beta2; experiment: Inhbition of [3H] nicotine binding to rat brain alpha4beta2 nAChR
[19] = Displacement of [3H]nicotine from sodium channel site2 (unknown origin); design: species or system Homo sapiens
[20] = Displacement of [3H]nicotine from dopamine D4.2 receptor (unknown origin); design: species or system Homo sapiens
[21] = In vivo agonist activity at nAChR in rat assessed as serotonin level in cortex at 3.6 micromol/kg, sc by microdialysis relative to control; format: functional; conditions: dose 3.6 µmol/kg
[22] = target: 5-hydroxytryptamine receptor 2A (Homo sapiens, UniProt P28223); experiment: Displacement of […] from 5-hydroxytryptamine receptor 2A (unknown origin)
[23] = target: T2, Neuronal acetylcholine receptor; alpha4/beta2 (Rattus norvegicus); experiment: Agonist activity at rat alpha4beta2 expressed in Xenopus oocytes assessed as peak activation at 100 uM relative to control; format: cell-based; conditions: Oocyte, filed as agonist
[24] = target: 5-hydroxytryptamine receptor 3A (Homo sapiens, UniProt P46098); experiment: Displacement of […] from 5-hydroxytryptamine receptor 3A (unknown origin)
Sequence of 5-hydroxytryptamine receptor 3A (P46098 whole entry): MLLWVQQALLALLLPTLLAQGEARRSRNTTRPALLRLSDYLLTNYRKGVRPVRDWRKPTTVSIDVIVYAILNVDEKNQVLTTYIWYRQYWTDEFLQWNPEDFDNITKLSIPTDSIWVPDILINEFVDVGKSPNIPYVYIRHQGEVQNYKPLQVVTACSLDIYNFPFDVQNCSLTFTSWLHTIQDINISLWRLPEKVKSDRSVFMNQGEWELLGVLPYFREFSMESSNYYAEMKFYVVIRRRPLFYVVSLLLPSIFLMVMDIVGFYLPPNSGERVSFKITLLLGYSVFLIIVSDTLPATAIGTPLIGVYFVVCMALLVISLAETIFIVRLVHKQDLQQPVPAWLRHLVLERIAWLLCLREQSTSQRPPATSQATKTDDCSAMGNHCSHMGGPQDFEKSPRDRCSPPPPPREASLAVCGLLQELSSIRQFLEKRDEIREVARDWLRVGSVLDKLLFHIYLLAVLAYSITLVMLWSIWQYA

[25] = target: Muscarinic acetylcholine receptor M3 (Homo sapiens, UniProt P20309); experiment: Displacement of [3H]nicotine from muscarinic M3 receptor (unknown origin)
B2 bradykinin receptor = B2 bradykinin receptor (Homo sapiens, UniProt P30411); experiment: Displacement of […] from B2 bradykinin receptor (unknown origin)
[26] = target: Cholecystokinin receptor type A (Homo sapiens, UniProt P32238); experiment: Displacement of [3H]nicotine from cholecystokinin receptor type A (unknown origin)
[27] = target: Gastrin/cholecystokinin type B receptor (Homo sapiens, UniProt P32239); experiment: Displacement of [3H]nicotine from cholecystokinin receptor type B (unknown origin)
[28] = Displacement of [3H]nicotine from Leukotriene B4 receptor (unknown origin); design: species or system Homo sapiens
Rattus norvegicus [29] = experiment: Memory enhancing effect in rat model of mecamylamine-induced amnesia assessed as decrease in latency to find platform at 0.3 to 3 micromol/kg, po by water-navigation test relative to control; format: functional; design: scale not given: the % may be the effect or the level left; conditions: dose 0.3-3 µmol/kg; at 0.3 to 3 µmol/kg
[30] = Displacement of [3H]nicotine from neurokinin receptor (unknown origin); design: species or system Homo sapiens
[31] = Acute toxicity in po dosed dog administered as single dose for 28 days; format: organism-based, Canis lupus familiaris; conditions: in vivo, time 28 day
[32] = In vivo agonist activity at nAChR in rat assessed as nor-epinephrine level in cortex at 3.6 micromol/kg, sc by microdialysis relative to control; format: functional; conditions: dose 3.6 µmol/kg
[33] = target: Muscarinic acetylcholine receptor M2 (Homo sapiens, UniProt P08172); experiment: Displacement of [3H]nicotine from muscarinic M2 receptor (unknown origin)
Rattus norvegicus [34] = experiment: Cognitive enhancing effect in Wistar rat assessed as reversal of scopolamine-induced amnesia at 0.6 micromol/kg, sc by passive-avoidance test relative to control; format: functional; conditions: dose 0.6 µmol/kg
[35] = Acute toxicity in po dosed mouse administered as single dose for 28 days; format: organism-based; conditions: in vivo, time 28 day
[36] = In vivo agonist activity at nAChR in rat assessed as dopamine level in cortex at 3.6 micromol/kg, sc by microdialysis relative to control; format: functional; conditions: dose 3.6 µmol/kg
[37] = target: Endothelin receptor type B (Homo sapiens, UniProt P24530); experiment: Displacement of [3H]nicotine from Endothelin receptor type B (unknown origin)
D(3) dopamine receptor = D(3) dopamine receptor (Homo sapiens, UniProt P35462); experiment: Displacement of [3H]nicotine from dopamine D3 receptor (unknown origin)
[38] = target: T2, Neuronal acetylcholine receptor; alpha4/beta2 (Rattus norvegicus); experiment: Potency index, ratio of nicotine EC50 to test compound EC50 for agonist activity at rat alpha4beta2 nAChR; format: protein-complex assay
[39] = target: Neuronal acetylcholine receptor subunit alpha-7 (Rattus norvegicus) (UniProt Q05941); experiment: Potency index, ratio of nicotine Ki to test compound Ki for rat alpha7 nAChR
Sequence of Neuronal acetylcholine receptor subunit alpha-7 (Rattus norvegicus) (Q05941 whole entry): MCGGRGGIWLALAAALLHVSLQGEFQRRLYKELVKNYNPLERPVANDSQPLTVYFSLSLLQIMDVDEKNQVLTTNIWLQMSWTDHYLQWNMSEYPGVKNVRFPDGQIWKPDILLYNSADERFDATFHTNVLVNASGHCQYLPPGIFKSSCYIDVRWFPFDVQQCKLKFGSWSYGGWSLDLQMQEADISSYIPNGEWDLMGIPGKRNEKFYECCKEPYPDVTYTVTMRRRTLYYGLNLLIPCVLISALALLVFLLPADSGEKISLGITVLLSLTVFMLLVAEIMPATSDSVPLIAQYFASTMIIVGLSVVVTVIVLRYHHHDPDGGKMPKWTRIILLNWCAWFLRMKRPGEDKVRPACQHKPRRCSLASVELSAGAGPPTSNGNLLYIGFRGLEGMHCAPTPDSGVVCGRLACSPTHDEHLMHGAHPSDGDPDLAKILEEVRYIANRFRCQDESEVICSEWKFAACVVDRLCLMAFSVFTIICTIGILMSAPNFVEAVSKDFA

[40] = target: T3, Neuronal acetylcholine receptor subunit alpha-7 (Rattus norvegicus, UniProt Q05941)
T3 sequence (Q05941 whole entry): as above
Description: Binding affinity to rat alpha7 nAChR

[41] = target: T3, Neuronal acetylcholine receptor subunit alpha-7; remark: listed apart in the source
Description: Agonist activity at rat alpha7 nAChR

[42] = target: T1, Neuronal acetylcholine receptor; alpha4/beta2; remark: listed apart in the source
Description: Agonist activity at rat alpha4beta2 nAChR

[43] = target: Neuronal acetylcholine receptor subunit alpha-7 (Rattus norvegicus) (UniProt Q05941); experiment: Potency index, ratio of nicotine EC50 to test compound EC50 for rat alpha7 nAChR
[44] = target: T1, Neuronal acetylcholine receptor; alpha4/beta2; experiment: Binding affinity to rat alpha4beta2 nAChR; format: protein-complex assay
[45] = Displacement of [3H]-(-)-nicotine from rat cerebral cortex nAChR incubated for 60 mins by liquid scintillation spectrometry
Mus musculus [46] = species: Mus musculus; experiment: animal or person
Description: Antinociceptive activity in mouse

[47] = Toxicity in iv dosed rat; format: organism-based; conditions: in vivo
Mus musculus [48] = species: Mus musculus; experiment: animal or person; remark: listed apart in the source
Description: Antinociceptive activity against mecamylamine-treated mouse

[49] = target: Neuronal acetylcholine receptor subunit alpha-7 (Homo sapiens, UniProt P36544)
Sequence of Neuronal acetylcholine receptor subunit alpha-7 (Homo sapiens, UniProt P36544) (P36544 whole entry): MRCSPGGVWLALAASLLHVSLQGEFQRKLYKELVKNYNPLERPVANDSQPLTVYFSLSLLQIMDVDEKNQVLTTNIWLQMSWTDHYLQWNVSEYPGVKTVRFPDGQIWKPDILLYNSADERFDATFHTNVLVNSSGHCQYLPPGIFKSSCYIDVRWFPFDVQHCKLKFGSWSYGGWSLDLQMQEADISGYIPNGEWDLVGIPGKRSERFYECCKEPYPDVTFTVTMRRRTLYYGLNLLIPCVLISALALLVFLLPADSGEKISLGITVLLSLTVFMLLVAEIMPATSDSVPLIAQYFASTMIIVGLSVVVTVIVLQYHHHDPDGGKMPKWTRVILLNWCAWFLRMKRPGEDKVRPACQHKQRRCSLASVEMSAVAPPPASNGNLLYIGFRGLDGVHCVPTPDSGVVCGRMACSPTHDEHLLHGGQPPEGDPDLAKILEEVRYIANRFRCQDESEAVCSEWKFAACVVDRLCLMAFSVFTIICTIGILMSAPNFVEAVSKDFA
Description: Displacement of [125I]alpha-bungarotoxin from human alpha7 nAChR expressed in K28 cell membrane

Mus musculus [50] = species: Mus musculus; experiment: animal or person; remark: listed apart in the source
Description: Antinociceptive activity in naloxone treated mouse assessed as induction of Straub-tail response

[51] = target: GABA-A receptor alpha-1/beta-1 (Bos taurus, UniProt P08219+P08220)
Description: Competitive inhibition of bovine GABAA alpha1beta1 expressed in Xenopus laevis oocytes

Acetylcholinesterase = Acetylcholinesterase (Bos taurus, UniProt P23795)

**Q.** Which IC50 [1] does the source give for `O=C([O-])c1ccc[n+](CCOC(=O)c2cc(Br)c[nH]2)c1` here?
**A.** The IC50 was 80 µM.

**Q.** For `O=C([O-])c1ccc[n+](CCOC(=O)c2ccc[nH]2)c1`, which Activity [2] is on record?
**A.** The Activity was 63.5%.

**Q.** And the Activity [3]?
**A.** The Activity was 25.1%.

**Q.** What about the Activity [4] of the same compound?
**A.** Its Activity is 58.1%.

**Q.** What about the Activity [5] of the same compound?
**A.** The Activity was 65.4%.

**Q.** What does the source list for `CN(C)CC/C=C/c1cccnc1`?
**A.** Activity [6]: 190%; IC50 [7]: > 10 µM; EC50 [8]: 0.732 µM; fold change (FC) (Rattus norvegicus [9]): 2; IC50 [10]: > 10 µM; IC50 [11]: > 10 µM; IC50 (Histamine H3 receptor): > 10 µM; IC50 [12]: > 10 µM; IC50 (Thromboxane A2 receptor): > 10 µM; IC50 [13]: > 10 µM; IC50 (Endothelin-1 receptor): > 10 µM; LD50 at 672 h [14]: 1.8e+06 µmol/kg; LD50 at 672 h [15]: 1.8e+06 µmol/kg; Emax [16]: 79%; Emax (Rattus norvegicus [17]): 81%; Ki [18]: 0.026 µM; IC50 [19]: > 10 µM; IC50 [20]: > 10 µM; Activity [21]: 170%; IC50 [22]: > 10 µM; Activity [23]: 492%; IC50 [24]: > 10 µM; IC50 [25]: > 10 µM; IC50 (B2 bradykinin receptor): > 10 µM; IC50 [26]: > 10 µM; IC50 [27]: > 10 µM; IC50 [28]: > 10 µM; Activity (Rattus norvegicus [29]): 40%; IC50 [30]: > 10 µM; LD50 at 672 h [31]: 1.8e+06 µmol/kg; Activity [32]: 150%; IC50 [33]: > 10 µM; Activity (Rattus norvegicus [34]): 50%; LD50 at 672 h [35]: 1.8e+06 µmol/kg; Activity [36]: 150%; IC50 [37]: > 10 µM; IC50 (D(3) dopamine receptor): > 10 µM

**Q.** With `c1cncc(C2=NCCCC2)c1` [ANABASEINE] as the compound, how does the Ratio EC50 [38] read?
**A.** The Ratio EC50 was 3.

**Q.** And the Ratio Ki [39]?
**A.** The Ratio Ki was 7.

**Q.** What about the Ki [40] of the same compound?
**A.** Its Ki is 0.058 µM.

**Q.** And the EC50 [41]?
**A.** Its EC50 is 6.7 µM.

**Q.** What about the EC50 [42] of the same compound?
**A.** The EC50 was 4.2 µM.

**Q.** And the Ratio EC50 [43]?
**A.** Its Ratio EC50 is 7.

**Q.** What about the Ki [44] of the same compound?
**A.** Its Ki is 0.032 µM.

**Q.** With `Clc1ccc(C2CC3CCC2N3)cn1` (stereo in doubt; (+)) [EPIBATIDINE] as the compound, how does the IC50 [45] read?
**A.** Its IC50 is 0.0001 µM.

**Q.** And the ED50 (Mus musculus [46])?
**A.** The ED50 was 0.0136 mg/kg.

**Q.** What about the LD50 [47] of the same compound?
**A.** Its LD50 is less than 0.125 µmol/kg.

**Q.** What about the ED50 (Mus musculus [48]) of the same compound?
**A.** The ED50 was 0.289 mg/kg.

**Q.** And the Ki [49]?
**A.** The Ki was 0.0022 µM.

**Q.** And the ED50 (Mus musculus [50])?
**A.** Its ED50 is 0.02 mg/kg.

**Q.** With `C[n+]1cccc(C(=O)[O-])c1` [TRIGONELLINE] as the compound, how does the Ki [51] read?
**A.** The Ki was 0.013 µM.

**Q.** What about the IC50 (Acetylcholinesterase) of the same compound?
**A.** Its IC50 is 233 µM.
